Measured values reported in patent publication US7344829B2, “Methods for detecting the efficacy of anticancer treatments” (Board of Regents, the University of Texas System, priority 2000, dated 2008).
Marks after values point to notes of the source that are not given here.

Experiments:
[1] = test system: L3.6pl human pancreatic cancer cells; test: Preliminary gemcitabine dose-response experiment in nude mice with pancreatic tumors; assay type: in vivo; settings: gemcitabine 250 mg/kg and 500 mg/kg compared to 125 mg/kg (data not shown)
Experimental: To evaluate the therapeutic effect of gemcitabine in this animal model, a preliminary dose-response experiment was performed. […] All mice were killed on day 35. The volume of tumors and incidence of metastasis were determined.

[2] = test system: L3.6pl human pancreatic cancer cells; test: Immunohistochemical analysis of human pancreatic carcinoma in the pancreas of treated nude mice; assay type: in vivo; settings: for PCNA+ tumor cells / TUNEL+ tumor cells: mean ± SD, 10 random 0.159-mm^2 fields at ×100; for CD (CD31, tumor MVD per field): staining with antibodies against CD31
Text: Immunohistochemical (IHC) Determination of VEGF, IL-8, PCNA, CD31/PECAM-1, and EGF-R. Paraffin-embedded tissues were used for identification of VEGF, IL-8, EGF-R, and proliferating cell nuclear antigen (PCNA). Sections (4–6 μm thick) were mounted on positively-charged Superfrost slides (Fisher Scientific, Co., Houston, Tex.) and dried overnight. Sections were deparaffinized in xylene followed by treatment with a graded series of alcohol (100%, 95%, 80% ethanol/ddH2O [v/v]) and rehydrated in PBS, pH 7.5. Sections analyzed for PCNA were microwaved 5 min for “antigen retrieval” (Shi et al. 1991). All other paraffin-embedded tissues were treated with pepsin (Biomeda) for 15 min at 37° C. and washed with PBS. Frozen tissues used for identification of CD31/PECAM-1, and activated EGF-R were sectioned (8–10 μm), mounted on positively charged Plus slides (Fisher Scientific), and air-dried for 30 min. Frozen sections were fixed in cold acetone (5 min), acetone/chloroform (v/v) (5 min), and acetone (5 min) and washed with PBS. Immunohistochemical procedures were performed as described previously (Rak et al. 1996). Positive reaction was visualized by incubating the slides with stable 3,3′-diaminobenzidine (DAB) for 10–20 min or 3-amino-9-ethylcarbazole (AEC) after CD31 staining. The sections were rinsed with distilled water, counterstained with Gill's hematoxylin for 1 min, and mounted with Universal Mount (Research Genetics). […] Sections analyzed for activated EGF-R were pretreated with goat anti-mouse IgG F(ab)2 fragment (1:10 dilution in PBS) for 4–6 h before incubation with the primary antibody. The positive reaction following staining for activated EGF-R was enhanced with osmium tetraoxide (4% aqueous solution) at a 1:1000 dilution in ddH2O after incubation with DAB.
Immunofluorescence Double Staining for CD31/PECAM-1 (Endothelial Cells) and TUNEL (Apoptotic Cells). Frozen tissues were sectioned (8–10 μm), mounted on positively charged slides, air-dried for 30 min, and fixed in cold acetone for 5 min, acetone+chloroform (1:1) for 5 min, and acetone for 5 min. Samples were washed 3 times with PBS, incubated with protein-blocking solution containing 5% normal horse serum and 1% normal goat serum in PBS for 20 min at room temperature, and incubated with the appropriate dilution (1:400) of rat monoclonal anti-mouse CD31 antibody (human cross-reactive) over 18 h at 4° C. After the samples were rinsed 4 times for 3 min each with PBS, the slides were incubated with the appropriate dilution (1:200) of secondary goat anti-rat conjugated to Texas Red for 1 h at room temperature in the dark. Samples were washed twice with PBS containing 0.1% Brij and washed with PBS for 5 min.
TUNEL was performed using a commercially available apoptosis detection kit with the following modifications: samples were fixed with 4% paraformaldehyde (methanol-free) for 10 min at room temperature, washed twice with PBS for 5 min, and then incubated with 0.2% Triton X-100 for 15 min at room temperature. After two washes of 5 min each with PBS, the samples were incubated with equilibration buffer (from kit) for 10 min at room temperature. The equilibration buffer was drained, and reaction buffer containing equilibration buffer, nucleotide mix, and TdT enzyme was added to the tissue sections and incubated in a humid atmosphere at 37° C. for 1 h in the dark. The reaction was terminated by immersing the samples in 2×SSC for 15 min. Samples were washed 3 times for 5 min to remove unincorporated fluorescein-dUTP. For quantification of […], the samples were incubated with 300 μg/ml of Hoechst stain for 10 min at room temperature. Fluorescent bleaching was minimized by treating slides with an enhancing reagent (Prolong solution). […]

[3] = test system: L3.6pl cells; test: In vitro cytotoxicity assay (MTT); assay type: cell-based; settings: Homo sapiens, 144 h, 6 days
Experimental: In Vitro Cytotoxicity Assay. In all assays, 700–1000 tumor cells were seeded into 38-mm^2 wells of flat-bottomed 96-well plates in quadruplicate and allowed to adhere overnight. The cultures were then washed and refed with medium (negative control) or medium containing PKI166 with or without gemcitabine. […] Following a 2–4 h incubation in medium containing 0.42 mg/ml of MTT, the cells were lysed in DMSO. The conversion of MTT to formazan by metabolically viable cells was monitored by an MR-5000 96-well microtiter plate reader at 570 nm (Dynatech, Inc., Chantilly, Va.). Growth inhibition was calculated from the formula: Cytostasis (%)=[1−(A/B)]×100, where A is the absorbance of treated cells and B is the absorbance of the control cells.

[4] = test system: L3.6pl human pancreatic cancer cells
Text: Animals and Orthotopic Implantation of Tumor Cells. Male athymic nude mice (NCr-nu) were purchased from the Animal Production Area of the National Cancer Institute-Frederick Cancer Research and Development Center (Frederick, Md.). The mice were housed and maintained in laminar flow cabinets under specific pathogen-free conditions in facilities approved by the American Association for Accreditation of Laboratory Animal Care and in accordance with current regulations and standards of the U. S. Department of Agriculture, U.S. Department of Health and Human Services, and the National Institutes of Health. The mice were used in accordance with institutional guidelines when they were 8 to 12 wk old.
Orthotopic Implantation of Tumor Cells. To produce tumors, L3.6pl cells were harvested from subconfluent cultures by a brief exposure to 0.25% trypsin and 0.02% EDTA. Trypsinization was stopped with medium containing 10% FBS, and the cells were washed once in serum-free medium and resuspended in HBSS. Only suspensions consisting of single cells with greater than 90% viability were used for the injections. Cells were injected into the pancreas as described previously. The mice were killed when moribund (5–6 wk). The size and weight of the primary pancreatic tumors, the incidence of regional (celiac and paraaortal) lymph node metastasis, and the number of liver metastases were recorded. Histopathology confirmed the nature of the disease.
Therapy of Established Human Pancreatic Carcinoma Tumors Growing in the Pancreas of Athymic Nude Mice. Seven days after implantation of tumor cells into the pancreas, 5 mice were killed and the presence of tumor lesions was determined. At this time, the median tumor volume was 18 mm^3. Histological examination confirmed the lesions to be actively growing pancreatic cancer.
Necropsy Procedures and Histological Studies. Mice were euthanized and the body weight was determined. Primary tumors in the pancreas were excised and weighed. […] Visible liver metastases were counted with the aid of a dissecting microscope and processed for H&E staining. All macroscopically enlarged regional (celiac and paraaortal) lymph nodes were harvested, and the presence of metastatic disease was confirmed by histology.

[5] = test system: IL-8; test: In vitro expression of IL-8 by L3.6pl cells (ELISA); assay type: cell-based, human; settings: 72 h, 1 μM PKI166 or 10 nM gemcitabine, control 1440 pg/ml
Experimental: (§1) In vitro Expression of VEGF and IL-8. L3.6pl cells (2000 cells/38 mm^2 well) were plated into 96-well plates in 200 μl supplemented DMEM containing 5% FBS for 24 h, and then treated with 0.05, 0.5, or 1 μM PKI166. Supplemented DMEM (5% FBS) and human IgG (10 μg/ml) served as controls. Seventy-two hours later, the culture supernatants were collected, and the level of VEGF and IL-8 proteins (corrected for cell number) were determined by Quantikine ELISA kits.

[6] = target: T1, EGF-R (Homo sapiens, UniProt P00533); test: Western blot analysis of EGF-R autophosphorylation in L3.6pl cells; assay type: cell-based; settings: concentration of 10 μM (data not shown)
T1 construct: endogenous in cells; host or cells: L3.6pl human pancreatic cancer cells
Experimental: Western Blot Analysis of EGF-R Autophosphorylation following Treatment with PKI166. […] without 40 ng/ml rhEGF for 10 min, washed, and scraped into PBS containing 5 mM EDTA and 1 mM Na Orthovanadate, and centrifuged, and the pellet resuspended in lysis buffer (20 mM Tris-HCl, pH 8.0, 137 mM NaCl, 10% glycerol, 2 mM EDTA, 1 mM phenylmethylsulfonyl fluoride, 20 μM leupeptin, and 0.15 U/ml aprotinin) sonicated, and centrifuged to recover […] protein. Immunoprecipitation was performed using Mab anti-EGF-R (clone EGF-RI) as described previously (Perrotte et al. 1999; Parker et al. 1998). Immunoprecipitates were analyzed on 7.5% NaDodSO4-PAGE and transferred onto 0.45-μm nitrocellulose membranes. The filters were blocked with 3% bovine serum albumin in TDS (20 mM Tris-HCl, pH 7.5, 150 mM NaCl), probed with either polyclonal sheep anti-human EGF-R (1:1000) or monoclonal anti-phosphotyrosine (Mab 4G10) (1:2000) in TTBS (0.1% Tween 20 in TBS), and incubated with horseradish peroxidase-conjugated donkey anti-sheep IgG (1:2000) (Sigma Immunochemicals, St. Louis, Mo.) or sheep anti-mouse IgG (1:2000), respectively, in TTBS. Protein bands were visualized by ECL detection system. For an additional experiment, serum-starved L3.6pl cells were treated with gemcitabine (10 nM) with or without PKI166 (0.05, 0.5 μM) for 1 h, and then incubated with or without rhEGF (40 ng/ml) for 10 min. […]

[7] = test system: VEGF; test: In vitro expression of VEGF by L3.6pl cells (ELISA); assay type: cell-based, human; settings: 72 h, 1 μM PKI166 or 10 nM gemcitabine, control 1400 pg/ml
Experimental: as §1

[8] = mean ± SD absorbance, ratio of tumor cell to normal pancreatic gland expression ×100, day 35

T1 sequence (P00533 25-1210): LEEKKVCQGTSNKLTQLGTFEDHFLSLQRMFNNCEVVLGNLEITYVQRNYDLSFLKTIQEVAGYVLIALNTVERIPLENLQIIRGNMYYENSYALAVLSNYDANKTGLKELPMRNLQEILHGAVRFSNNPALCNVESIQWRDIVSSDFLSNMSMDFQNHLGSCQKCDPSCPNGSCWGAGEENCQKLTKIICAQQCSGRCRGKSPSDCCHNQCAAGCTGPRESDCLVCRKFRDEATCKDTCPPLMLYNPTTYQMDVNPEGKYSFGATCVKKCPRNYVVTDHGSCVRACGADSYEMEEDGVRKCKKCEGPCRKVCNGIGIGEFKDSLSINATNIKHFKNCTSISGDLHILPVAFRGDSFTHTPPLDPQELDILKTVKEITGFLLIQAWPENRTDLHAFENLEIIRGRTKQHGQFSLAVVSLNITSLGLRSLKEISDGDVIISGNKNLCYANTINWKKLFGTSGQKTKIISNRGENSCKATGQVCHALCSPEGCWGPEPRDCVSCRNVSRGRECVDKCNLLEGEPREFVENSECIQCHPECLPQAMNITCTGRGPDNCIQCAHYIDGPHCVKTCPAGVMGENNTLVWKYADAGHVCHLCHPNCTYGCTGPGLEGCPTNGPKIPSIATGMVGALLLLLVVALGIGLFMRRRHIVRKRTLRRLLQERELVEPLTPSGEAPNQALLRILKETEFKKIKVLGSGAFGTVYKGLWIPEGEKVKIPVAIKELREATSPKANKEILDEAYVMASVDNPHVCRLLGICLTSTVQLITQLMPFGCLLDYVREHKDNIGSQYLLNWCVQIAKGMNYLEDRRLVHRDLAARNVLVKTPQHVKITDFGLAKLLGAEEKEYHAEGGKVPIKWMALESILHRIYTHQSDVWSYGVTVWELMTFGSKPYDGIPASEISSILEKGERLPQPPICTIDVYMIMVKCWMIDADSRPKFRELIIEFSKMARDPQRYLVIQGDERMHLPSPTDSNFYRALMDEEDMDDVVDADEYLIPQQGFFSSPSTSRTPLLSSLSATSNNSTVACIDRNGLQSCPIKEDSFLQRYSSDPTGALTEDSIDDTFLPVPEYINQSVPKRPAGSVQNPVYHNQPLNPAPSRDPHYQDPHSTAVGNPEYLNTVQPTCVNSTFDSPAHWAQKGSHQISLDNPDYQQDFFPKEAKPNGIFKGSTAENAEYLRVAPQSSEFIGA

`Nc1ccn([C@@H]2O[C@H](CO)[C@@H](O)C2(F)F)c(=O)n1` [gemcitabine] was tested. Which “Effect of increasing the dose on pancreatic tumor growth and metastasis” value [1] did it give?
Its value is “did not further reduce”.

What about the “ratio of PCNA-positive over TUNEL-positive cells” value ([2]; calculated) of the same compound?
Its value is 1.1.

What about the “Staining of pancreatic tumors for activated (phosphorylated) EGF-R” value ([2]; immunohistochemistry of tumors from treated nude mice) of the same compound?
The value was “stained positive”.

What about the IL-8 [2, 8] of the same compound?
Its IL-8 is 299 ± 43.

And the VEGF [2, 8]?
Its VEGF is 298 ± 54.

And the “PCNA+ tumor cells” value ([2]; day 35)?
The value was 237±66 positive cells/field.

And the “TUNEL+ tumor cells” value ([2]; day 35)?
The value was 225±95 positive cells/field.

What about the “PCNA+ tumor cells” value ([2]; day 35, listed as Gemcitabine) of the same compound?
The value was 237 ± 66 positive cells/field.

And the “TUNEL+ tumor cells” value ([2]; day 35, listed as Gemcitabine)?
The value was 225 ± 95^e positive cells/field.

And the “CD (CD31, tumor MVD per field)” value ([2]; day 35)?
Its value is 52±18.

And the “CD (CD31, tumor MVD per field)” value ([2]; day 35, listed as Gemcitabine)?
The value was 52.

And the IC50 ([3]; gemcitabine alone)?
The IC50 was 880 nM.

What about the IC50 ([3]; in the presence of PKI166 (0.03 μM)) of the same compound?
Its IC50 is 520 nM.

What about the “Histologically positive regional lymph node metastases, share of animals” value ([4]; day 35) of the same compound?
The value was 90%.

And the “Reduction of growth of primary pancreatic neoplasms” value ([4]; human pancreatic carcinoma in pancreas of nude mice)?
The value was 45%.

What about the “IL-8 in culture supernatant” value [5] of the same compound?
The value was 2000 pg/mL.

And the “Effect on autophosphorylation of EGF-R” value [6]?
Its value is “did not affect”.

What about the “VEGF in culture supernatant” value [7] of the same compound?
Its value is 1280 pg/mL.
